According to the NIST ThermoML archive (doi:10.1007/s10765-009-0602-6):
± gives the expanded uncertainty stated by the source.

Test: molar heat capacity at constant volume; xn = mol fraction of the nth substance listed
Details: x1 = 0.2607

Q: What does the source list for N [ammonia] + O?
A: molar heat capacity at constant volume (508.07 K, Fluid (supercritical or subcritical phases), Mass density=671.23 kg/m3, isochoric heat capacity): 68.25 ± 2.7 J/K/mol; molar heat capacity at constant volume (508.07 K, Liquid, Isochoric heat capacity): 68.25 ± 2.7 J/K/mol; molar heat capacity at constant volume (508.26 K, Fluid (supercritical or subcritical phases), Mass density=671.23 kg/m3, isochoric heat capacity): 68.14 ± 2.7 J/K/mol; molar heat capacity at constant volume (508.36 K, Fluid (supercritical or subcritical phases), Mass density=671.23 kg/m3, isochoric heat capacity): 68.37 ± 2.7 J/K/mol; molar heat capacity at constant volume (508.45 K, Fluid (supercritical or subcritical phases), Mass density=671.23 kg/m3, isochoric heat capacity): 67.54 ± 2.7 J/K/mol; molar heat capacity at constant volume (508.54 K, Fluid (supercritical or subcritical phases), Mass density=671.23 kg/m3, isochoric heat capacity): 67.61 ± 2.7 J/K/mol; molar heat capacity at constant volume (508.64 K, Fluid (supercritical or subcritical phases), Mass density=671.23 kg/m3, isochoric heat capacity): 67.18 ± 2.7 J/K/mol; molar heat capacity at constant volume (509.01 K, Fluid (supercritical or subcritical phases), Mass density=671.23 kg/m3, isochoric heat capacity): 68.48 ± 2.7 J/K/mol; molar heat capacity at constant volume (509.11 K, Fluid (supercritical or subcritical phases), Mass density=671.23 kg/m3, isochoric heat capacity): 67.7 ± 2.7 J/K/mol; molar heat capacity at constant volume (509.3 K, Fluid (supercritical or subcritical phases), Mass density=671.23 kg/m3, isochoric heat capacity): 67.89 ± 2.7 J/K/mol; molar heat capacity at constant volume (509.39 K, Fluid (supercritical or subcritical phases), Mass density=671.23 kg/m3, isochoric heat capacity): 66.74 ± 2.7 J/K/mol; molar heat capacity at constant volume (509.67 K, Fluid (supercritical or subcritical phases), Mass density=671.23 kg/m3, isochoric heat capacity): 67.09 ± 2.7 J/K/mol; molar heat capacity at constant volume (513.42 K, Fluid (supercritical or subcritical phases), Mass density=671.23 kg/m3, isochoric heat capacity): 65.53 ± 2.6 J/K/mol; molar heat capacity at constant volume (513.61 K, Fluid (supercritical or subcritical phases), Mass density=671.23 kg/m3, isochoric heat capacity): 65.05 ± 2.6 J/K/mol; molar heat capacity at constant volume (513.8 K, Fluid (supercritical or subcritical phases), Mass density=671.23 kg/m3, isochoric heat capacity): 65.6 ± 2.6 J/K/mol; molar heat capacity at constant volume (516.88 K, Fluid (supercritical or subcritical phases), Mass density=671.23 kg/m3, isochoric heat capacity): 63.54 ± 2.5 J/K/mol; molar heat capacity at constant volume (517.07 K, Fluid (supercritical or subcritical phases), Mass density=671.23 kg/m3, isochoric heat capacity): 63.15 ± 2.5 J/K/mol; molar heat capacity at constant volume (517.26 K, Fluid (supercritical or subcritical phases), Mass density=671.23 kg/m3, isochoric heat capacity): 63.06 ± 2.5 J/K/mol; molar heat capacity at constant volume (517.44 K, Fluid (supercritical or subcritical phases), Mass density=671.23 kg/m3, isochoric heat capacity): 63.27 ± 2.5 J/K/mol; molar heat capacity at constant volume (517.63 K, Fluid (supercritical or subcritical phases), Mass density=671.23 kg/m3, isochoric heat capacity): 62.44 ± 2.5 J/K/mol; molar heat capacity at constant volume (517.82 K, Fluid (supercritical or subcritical phases), Mass density=671.23 kg/m3, isochoric heat capacity): 63.49 ± 2.5 J/K/mol; molar heat capacity at constant volume (519.77 K, Fluid (supercritical or subcritical phases), Mass density=649.65 kg/m3, isochoric heat capacity): 68.81 ± 2.8 J/K/mol; molar heat capacity at constant volume (519.77 K, Liquid, Isochoric heat capacity): 68.81 ± 2.8 J/K/mol; molar heat capacity at constant volume (519.87 K, Fluid (supercritical or subcritical phases), Mass density=649.65 kg/m3, isochoric heat capacity): 68.23 ± 2.7 J/K/mol; molar heat capacity at constant volume (520.05 K, Fluid (supercritical or subcritical phases), Mass density=649.65 kg/m3, isochoric heat capacity): 65.99 ± 2.6 J/K/mol; molar heat capacity at constant volume (520.14 K, Fluid (supercritical or subcritical phases), Mass density=649.65 kg/m3, isochoric heat capacity): 66.91 ± 2.7 J/K/mol; molar heat capacity at constant volume (520.24 K, Fluid (supercritical or subcritical phases), Mass density=649.65 kg/m3, isochoric heat capacity): 67.27 ± 2.7 J/K/mol; molar heat capacity at constant volume (520.33 K, Fluid (supercritical or subcritical phases), Mass density=649.65 kg/m3, isochoric heat capacity): 64.87 ± 2.6 J/K/mol; molar heat capacity at constant volume (520.42 K, Fluid (supercritical or subcritical phases), Mass density=649.65 kg/m3, isochoric heat capacity): 66.63 ± 2.7 J/K/mol; molar heat capacity at constant volume (520.52 K, Fluid (supercritical or subcritical phases), Mass density=649.65 kg/m3, isochoric heat capacity): 67.09 ± 2.7 J/K/mol; molar heat capacity at constant volume (520.79 K, Fluid (supercritical or subcritical phases), Mass density=649.65 kg/m3, isochoric heat capacity): 65.87 ± 2.6 J/K/mol; molar heat capacity at constant volume (520.98 K, Fluid (supercritical or subcritical phases), Mass density=649.65 kg/m3, isochoric heat capacity): 65.39 ± 2.6 J/K/mol; molar heat capacity at constant volume (521.17 K, Fluid (supercritical or subcritical phases), Mass density=649.65 kg/m3, isochoric heat capacity): 66.9 ± 2.7 J/K/mol; molar heat capacity at constant volume (521.35 K, Fluid (supercritical or subcritical phases), Mass density=649.65 kg/m3, isochoric heat capacity): 66.72 ± 2.7 J/K/mol; molar heat capacity at constant volume (521.45 K, Fluid (supercritical or subcritical phases), Mass density=649.65 kg/m3, isochoric heat capacity): 66.06 ± 2.6 J/K/mol; molar heat capacity at constant volume (521.54 K, Fluid (supercritical or subcritical phases), Mass density=649.65 kg/m3, isochoric heat capacity): 65.81 ± 2.6 J/K/mol; molar heat capacity at constant volume (526.45 K, Fluid (supercritical or subcritical phases), Mass density=649.65 kg/m3, isochoric heat capacity): 63.84 ± 2.6 J/K/mol; molar heat capacity at constant volume (526.64 K, Fluid (supercritical or subcritical phases), Mass density=649.65 kg/m3, isochoric heat capacity): 63.74 ± 2.6 J/K/mol; molar heat capacity at constant volume (526.82 K, Fluid (supercritical or subcritical phases), Mass density=649.65 kg/m3, isochoric heat capacity): 63.43 ± 2.5 J/K/mol; molar heat capacity at constant volume (527.01 K, Fluid (supercritical or subcritical phases), Mass density=649.65 kg/m3, isochoric heat capacity): 63.65 ± 2.5 J/K/mol; molar heat capacity at constant volume (527.19 K, Fluid (supercritical or subcritical phases), Mass density=649.65 kg/m3, isochoric heat capacity): 62.83 ± 2.5 J/K/mol; molar heat capacity at constant volume (527.28 K, Fluid (supercritical or subcritical phases), Mass density=649.65 kg/m3, isochoric heat capacity): 63.36 ± 2.5 J/K/mol; molar heat capacity at constant volume (545.62 K, Fluid (supercritical or subcritical phases), Mass density=594.32 kg/m3, isochoric heat capacity): 71.3 ± 2.9 J/K/mol; molar heat capacity at constant volume (545.62 K, Liquid, Isochoric heat capacity): 71.3 ± 2.9 J/K/mol; molar heat capacity at constant volume (545.71 K, Fluid (supercritical or subcritical phases), Mass density=594.32 kg/m3, isochoric heat capacity): 69.65 ± 2.8 J/K/mol; molar heat capacity at constant volume (545.8 K, Fluid (supercritical or subcritical phases), Mass density=594.32 kg/m3, isochoric heat capacity): 69.15 ± 2.8 J/K/mol; molar heat capacity at constant volume (546.08 K, Fluid (supercritical or subcritical phases), Mass density=594.32 kg/m3, isochoric heat capacity): 68.46 ± 2.7 J/K/mol; molar heat capacity at constant volume (546.17 K, Fluid (supercritical or subcritical phases), Mass density=594.32 kg/m3, isochoric heat capacity): 67.48 ± 2.7 J/K/mol; molar heat capacity at constant volume (546.35 K, Fluid (supercritical or subcritical phases), Mass density=594.32 kg/m3, isochoric heat capacity): 68.48 ± 2.7 J/K/mol; molar heat capacity at constant volume (546.62 K, Fluid (supercritical or subcritical phases), Mass density=594.32 kg/m3, isochoric heat capacity): 67.15 ± 2.7 J/K/mol; molar heat capacity at constant volume (546.71 K, Fluid (supercritical or subcritical phases), Mass density=594.32 kg/m3, isochoric heat capacity): 66.47 ± 2.7 J/K/mol; molar heat capacity at constant volume (547.07 K, Fluid (supercritical or subcritical phases), Mass density=594.32 kg/m3, isochoric heat capacity): 65.62 ± 2.6 J/K/mol; molar heat capacity at constant volume (547.17 K, Fluid (supercritical or subcritical phases), Mass density=594.32 kg/m3, isochoric heat capacity): 66.33 ± 2.6 J/K/mol; molar heat capacity at constant volume (547.5 K, Fluid (supercritical or subcritical phases), Mass density=594.32 kg/m3, isochoric heat capacity): 65.53 ± 2.6 J/K/mol; molar heat capacity at constant volume (547.79 K, Fluid (supercritical or subcritical phases), Mass density=594.32 kg/m3, isochoric heat capacity): 65.46 ± 2.6 J/K/mol; molar heat capacity at constant volume (547.98 K, Fluid (supercritical or subcritical phases), Mass density=594.32 kg/m3, isochoric heat capacity): 63.91 ± 2.6 J/K/mol; molar heat capacity at constant volume (549.8 K, Fluid (supercritical or subcritical phases), Mass density=594.32 kg/m3, isochoric heat capacity): 63.77 ± 2.6 J/K/mol; molar heat capacity at constant volume (549.98 K, Fluid (supercritical or subcritical phases), Mass density=594.32 kg/m3, isochoric heat capacity): 62.97 ± 2.5 J/K/mol; molar heat capacity at constant volume (550.07 K, Fluid (supercritical or subcritical phases), Mass density=594.32 kg/m3, isochoric heat capacity): 63.74 ± 2.6 J/K/mol; molar heat capacity at constant volume (550.16 K, Fluid (supercritical or subcritical phases), Mass density=594.32 kg/m3, isochoric heat capacity): 63.45 ± 2.5 J/K/mol; molar heat capacity at constant volume (550.34 K, Fluid (supercritical or subcritical phases), Mass density=594.32 kg/m3, isochoric heat capacity): 63.56 ± 2.5 J/K/mol; molar heat capacity at constant volume (561.03 K, Fluid (supercritical or subcritical phases), Mass density=552.58 kg/m3, isochoric heat capacity): 73.2 ± 2.9 J/K/mol; molar heat capacity at constant volume (561.03 K, Liquid, Isochoric heat capacity): 73.2 ± 2.9 J/K/mol; molar heat capacity at constant volume (561.19 K, Fluid (supercritical or subcritical phases), Mass density=552.58 kg/m3, isochoric heat capacity): 70.73 ± 2.9 J/K/mol; molar heat capacity at constant volume (561.25 K, Fluid (supercritical or subcritical phases), Mass density=552.58 kg/m3, isochoric heat capacity): 66.7 ± 2.7 J/K/mol; molar heat capacity at constant volume (561.34 K, Fluid (supercritical or subcritical phases), Mass density=552.58 kg/m3, isochoric heat capacity): 64.8 ± 2.6 J/K/mol; molar heat capacity at constant volume (561.52 K, Fluid (supercritical or subcritical phases), Mass density=552.58 kg/m3, isochoric heat capacity): 64.06 ± 2.6 J/K/mol; molar heat capacity at constant volume (561.61 K, Fluid (supercritical or subcritical phases), Mass density=552.58 kg/m3, isochoric heat capacity): 62.44 ± 2.5 J/K/mol; molar heat capacity at constant volume (561.7 K, Fluid (supercritical or subcritical phases), Mass density=552.58 kg/m3, isochoric heat capacity): 64.39 ± 2.6 J/K/mol; molar heat capacity at constant volume (561.88 K, Fluid (supercritical or subcritical phases), Mass density=552.58 kg/m3, isochoric heat capacity): 63.24 ± 2.5 J/K/mol; molar heat capacity at constant volume (561.97 K, Fluid (supercritical or subcritical phases), Mass density=552.58 kg/m3, isochoric heat capacity): 62.79 ± 2.5 J/K/mol; molar heat capacity at constant volume (562.06 K, Fluid (supercritical or subcritical phases), Mass density=552.58 kg/m3, isochoric heat capacity): 61.43 ± 2.5 J/K/mol; molar heat capacity at constant volume (565.36 K, Liquid, Isochoric heat capacity): 73.52 ± 2.9 J/K/mol; molar heat capacity at constant volume (580.18 K, Fluid (supercritical or subcritical phases), Mass density=476.25 kg/m3, isochoric heat capacity): 77.25 ± 3.1 J/K/mol; molar heat capacity at constant volume (580.18 K, Liquid, Isochoric heat capacity): 77.25 ± 3.1 J/K/mol; molar heat capacity at constant volume (580.21 K, Fluid (supercritical or subcritical phases), Mass density=476.25 kg/m3, isochoric heat capacity): 73.61 ± 3 J/K/mol; molar heat capacity at constant volume (580.3 K, Fluid (supercritical or subcritical phases), Mass density=476.25 kg/m3, isochoric heat capacity): 69.74 ± 2.8 J/K/mol; molar heat capacity at constant volume (580.56 K, Fluid (supercritical or subcritical phases), Mass density=476.25 kg/m3, isochoric heat capacity): 68.42 ± 2.8 J/K/mol; molar heat capacity at constant volume (580.74 K, Fluid (supercritical or subcritical phases), Mass density=476.25 kg/m3, isochoric heat capacity): 68.46 ± 2.7 J/K/mol; molar heat capacity at constant volume (580.92 K, Fluid (supercritical or subcritical phases), Mass density=476.25 kg/m3, isochoric heat capacity): 67.84 ± 2.7 J/K/mol; molar heat capacity at constant volume (581.01 K, Fluid (supercritical or subcritical phases), Mass density=476.25 kg/m3, isochoric heat capacity): 68.48 ± 2.7 J/K/mol
